B1: 42CQ-6501: 42CQ, an AFFIMER polypeptide binding serum albumin (SEQ ID NO: 133), conjugated with 6501 (conjugate)
chain: MIPRGLSEAKPATPEIQEIVDKVKPQLEEKTNETYGKLEAVQYKTQVLANFFQRRWPGSTNYYIKVRAGDNKYMHLKVFNGPWKFRNTDRGADRVLTGYQVDKNKDDELTGFAAAGGRAEQKLISEEDLGCAENLYFQGGAAGHHHHHH
modifications: conjugated with 6501

Key:
[1] = test system: rats; test: EC50 / maximum tolerated dose studies, rats; assay type: in vivo, rat
Method: (§1) Half-maximal effective concentration (EC50) studies were undertaken to examine the difference between mice and rats administered talabostat alone (FIG. 4A) and mice and rats administered the therapeutic conjugates comprising talabostat (FIG. 4B). When talabostat is administered alone, the talabostat maximum tolerated dose (MTD) is about 3 mg/m^2 in a mouse tumor model and 0.18 mg/m^2 in rats. That is, the talabostat MTD is 1/17 the tumor model EC50 (FIG. 4A). In contrast, when the talabostat is administered as part of the therapeutic conjugate, the MTD is 160 mg/m^2 in the mouse model and the EC50 for rats is greater than 500 mg/m^2 (FIG. 4B). Talabostat, as part of the therapeutic conjugate, can be administered to rats and mice at therapeutically effective doses.

[2] = test system: mouse tumor model; test: EC50 / maximum tolerated dose studies, mice; assay type: in vivo
Method: as §1

[3] = test system: G-CSF; settings: VbP alone, known; cited from earlier work
[4] = test system: G-CSF; test: G-CSF serum cytokine response in nontumor-bearing BALB/c mice (ELISA); assay type: in vivo; settings: 200 μg/mouse intraperitoneal, six hours after dosing (FIG. 23)
Method: The FAP-activated prodrug G-CSF serum cytokine response in nontumor-bearing BALB/c mice was examined. Female BALB/c mice of 11-12 weeks of age were injected intraperitonially with vehicle (PBS), 42CQ-6501, or 42CQ-6501+MSA at 200 μg/mouse, in groups of 5 mice per treatment.
While cytokine recruitment is believed to play an important role in tumor immunity, its presence in the serum represents a systemic response, which can lead to unwanted adverse effects. […] 42CQ is an AFFIMER® polypeptide designed to bind to serum albumin (SEQ ID NO: 133). Consequently, the 42CQ-based conjugates (with 6501) were prepared with or without prebinding to MSA to determine whether there was an evident difference between the two formulations.
Six hours after dosing, blood was collected to measure G-CSF in the serum using a mouse G-CSF Quantikine ELISA kit.

Molecule	maximum tolerated dose (MTD) [1] [mg/m^2]	maximum tolerated dose (MTD) ([2]; mouse tumor model)	talabostat MTD relative to the tumor model EC50 ([2]; talabostat administered alone (FIG. 4A))	serum G-CSF response [3]	serum concentration of G-CSF [4]
CC(C)[C@H](N)C(=O)N1CCC[C@H]1B(O)O [Talabostat, Val-boroPro]	0.18	about 3 mg/m^2	1/17	large serum G-CSF response	–
B1	–	–	–	–	significant increase

From US20230390409A1, “FAP-ACTIVATED SERUM EXTENDED HALF-LIFE THERAPEUTIC CONJUGATES” (Avacta Life Sciences Limited, priority 2020, published 2023)
